{"source": "paper PMC12662848", "about": "(Cancer Chemotherapy and Pharmacology, 2025)", "key": {"BCL-2 [1]": {"test_system": "BCL-2", "assay": "Western blotting of BCL-2α/β proteins and cleaved caspase-3 in healthy donor PBMCs treated ex vivo with ABT-199", "type": "cell-based, human", "conditions": "1 µM", "protocol": "(§1) PBMCs from the trial patients or healthy donors were isolated from whole blood using Lymphoprep™ ([…] Technologies, Cat. #07801) following the manufacturer’s protocol. Whole blood was diluted 1:1 with room temperature phosphate-buffered saline (PBS) containing 2% fetal bovine serum (FBS) and carefully layered over an equal volume of Lymphoprep™ in a 50 mL conical tube. Samples were centrifuged at 800 × g for 20–30 min at room temperature with the brake off. The PBMC layer formed at the interface between the plasma and Lymphoprep™ was gently collected and transferred to a new tube. Cells were washed once with PBS containing 2% FBS by centrifugation at 300 × g for 10 min, and the final pellet was resuspended in DMEM media for downstream culture.\n(§2) ABT-199 (S8048, Selleck Chemicals) was dissolved in DMSO. Healthy donor PBMCs were seeded at a density of 2 × 10⁶ cells per 60 mm dish and treated with 1 μM of ABT-199 for various time intervals (i.e., 2, 4, 8, and 24 h). At the end of each time point, PBMCs were harvested for protein and RNA extraction (below). All treatments were performed in 3–6 biological replicates and control samples were treated with vehicle (DMSO) only.\nPBMC samples from above were harvested using 0.1% trypsin–EDTA solution (Gibco) and centrifuged (1,000 rcf, 4 min, 4 °C), washed with DPBS (Gibco), centrifuged again (1,000 rcf, 4 min, 4 °C), and the pellet was lysed in denaturing buffer containing Halt protease inhibitor cocktail (Thermo Fisher Scientific; Cat# SD-001/SN-002) for 15 min on ice. After centrifugation (15,000 rcf, 15 min, 4 °C), an aliquot of the supernatant was taken to determine the protein concentration using a BCA Protein Assay Kit (Thermo Fisher Scientific). Protein samples were mixed in NuPAGE LDS buffer and 1 × reducing agent (Invitrogen) and denatured at 95 °C for 5 min. Proteins separated by sodium dodecyl sulfate–polyacrylamide gel electrophoresis (SDS-PAGE) were transferred to a nitrocellulose membrane at 110 V for 110 min in a wet tank transfer system (Surelock system, Invitrogen). […]"}, "BCL-2 [2]": {"test_system": "BCL-2", "assay": "Automated Western blot (WES) analysis of BCL-2 protein in patient PBMCs", "type": "in vivo, human", "protocol": "as §1\nThe BCL-2 protein levels in patient PBMCs were analyzed using PBMC lysate in the automated quantitative WES™ system (https://www.bio-techne.com/brands/proteinsimple), as we previously described. Briefly, the Simple Western WES™ immunoassays take place in capillaries and separate proteins by size as they migrate through stacking and separation matrix. The separated proteins are immobilized to the capillary wall via a proprietary, photoactivated capture chemistry. […] Quantitative results such as M.W, signal intensity (area), % area, and signal-to-noise for each immunodetected protein are presented in the results table automatically. […]"}, "[3]": {"set-up": "method as in PMID 34416076", "conditions": "cited from earlier work"}, "[4]": {"conditions": "cited from earlier work"}, "BCL-2β mRNA": {"test_system": "BCL-2β mRNA", "assay": "qPCR analysis of BCL-2β mRNA in healthy donor PBMCs treated ex vivo with ABT-199", "type": "cell-based, human", "conditions": "1 µM; for BCL-2β mRNA levels: 2–4 h post-treatment", "protocol": "as §1, §2\nWe developed a qPCR-based strategy to quantitatively analyze the BCL-2α/β mRNA levels in control and ABT-199 treated PBMCs (above). Briefly, total RNA was extracted using the PicoPure™ RNA Isolation Kit (Thermo Fisher Scientific, cat# KIT0204) with on-column DNase treatment. cDNA was synthesized from 750 ng RNA using SuperScript™ IV VILO™ Master Mix (Thermo Fisher Scientific, cat# 11,756,050). Quantitative PCR was performed using TaqMan Gene Expression Assays (Bio-Rad) with a FAM-conjugated custom probe specific for the BCL-2β isoform (5’-[…]-3’; Bio-Rad, part# 10,031,261). […] Reactions were run on the QuantStudio™ 6 Flex Real-Time PCR System (Applied Biosystems) under standard cycling conditions. Relative expression was calculated using the 2^–ΔΔCt method normalized to the 0-h (untreated) control. All conditions were tested in technical triplicates from 3–6 independent experiments."}}, "data": [{"smiles": "CC1(C)CCC(CN2CCN(c3ccc(C(=O)NS(=O)(=O)c4ccc(NCC5CCOCC5)c([N+](=O)[O-])c4)c(Oc4cnc5[nH]ccc5c4)c3)CC2)=C(c2ccc(Cl)cc2)C1", "note": "[venetoclax]", "values": [{"measurement": "Apoptosis: active (cleaved) caspase-3", "setting": "BCL-2 [1]; PBMCs from all 3 healthy donors", "result": "increased active (cleaved) caspase-3"}, {"measurement": "BCL-2β protein levels and BCL-2β/BCL-2α ratios", "setting": "BCL-2 [1]; all 3 healthy donor PBMCs, from 2 h up to 8 h", "result": "upregulated BCL-2β protein levels and increased the BCL-2β/BCL-2α ratios"}, {"measurement": "BCL-2α/BCL-2β proteins", "setting": "BCL-2 [1]; healthy donor PBMCs, ≥ 24 h post treatment", "result": "lost and undetectable"}, {"measurement": "BCL-2β and BCL-2α protein in patients' PBMCs", "setting": "BCL-2 [2]; three 'responsive' patients (02–01, 02–07, 01–03), early cycles of treatment", "result": "promoted the generation of BCL-2β with concordant reduction in BCL-2α protein"}, {"measurement": "BCL-2α and BCL-2β protein in patients' PBMCs", "setting": "BCL-2 [2]; three 'responsive' patients, late cycles and towards the end of treatment (EoT)", "result": "markedly reduced"}, {"measurement": "Permeability", "setting": "[3]", "result": "low"}, {"measurement": "Solubility", "setting": "[3]", "result": "low"}, {"measurement": "Absolute bioavailability", "setting": "[4]", "result": "~ 5%"}, {"measurement": "Less than expected exposure when doubling dose", "setting": "[4]; from 400 to 800 mg, population PK report", "result": 12, "unit": "%"}, {"measurement": "Cmax", "setting": "[4]; previous values, 800 mg dose", "result": 3.74, "unit": "µg/mL"}, {"measurement": "Cmin", "setting": "[4]; previous values, 800 mg dose", "result": 1.43, "unit": "µg/mL"}, {"measurement": "Venetoclax half-life", "setting": "[4]; previously reported in AML patients", "result": "14 to 26", "unit": "h"}, {"measurement": "Venetoclax clearance", "setting": "[4]; previously reported", "result": 413, "unit": "L/day"}, {"measurement": "BCL-2β mRNA levels", "setting": "BCL-2β mRNA", "result": "induced"}, {"measurement": "BCL-2β mRNA levels", "setting": "BCL-2β mRNA; listed as Venetoclax", "result": "increased significantly"}, {"measurement": "BCL-2β mRNA", "setting": "BCL-2β mRNA; ≥ 24 h post treatment", "result": "undetectable"}]}]}
